Experimental data taken from patent publication US20220370440A1 (Lead Discovery Center GmbH, priority 2018, published 2022).

Legend:
EGFR wt = EGFR wt (Homo sapiens, UniProt P00533); experiment: EGFR wt Lance assay; type: biochemical
Experimental: (§1) Inhibition is indicated as […] [nM] (“−”=not measured). Compounds having an activity designated as “A” provided an IC50≤100 nM; compounds having an activity designated as “B” provided an 100 nM<IC50≤500 nM; compounds having an activity designated as “C” provided an 500 nM<IC50≤1000 nM; compounds having an activity designated as “D” provided an 1000 nM<IC50≤100000 nM; and compounds having an activity designated as “E” provided an IC50>10000 nM.

HER2 INS YVMA = target: T1, HER2 INS YVMA (Homo sapiens, UniProt P04626, INS775YVMA); experiment: Lance Kinase Activity Assay, HER2 INS YVMA (Her2 Exon 20 INSYVMA Lance); type: biochemical; conditions: biochemical Lance assay
T1 construct: purchased DPF
Experimental: 1. Measurement of HER2 INS YVMA Kinase Activity
This protocol describes how the Lance Kinase Activity Assay was performed to determine IC50 values of compounds of general formula (I) against HER2 INS YVMA. The principle behind this enzymatic assay is based upon the phosphorylation of the Ulight-peptide substrate. It is detected by using a specific EU-labeled anti-phospho peptide antibody. The binding of the Eu labeled anti-phospho peptide antibody to the phosphorylated ULight labeled peptide gives rise to a FRET-signal.
Binding of an inhibitor to the kinase prevents phosphorylation of the Ulight-substrate, resulting in a loss of FRET. In table 2 is summarized the relevant information for the LANCE assay.
The compounds of general formula (I) summarized in Table 3 were serial diluted from a 10 mM DMSO stock solution 1:3 over 8 steps in a total volume of 20 μl.
For every sample, 8 μl of kinase-substrate mix was transferred into a suitable assay plate (e.g. Corning #3673). Compound was added via pintool transfer (10 nl/well) using a Biomek FX robot (BeckmanCoulter). Reaction was started by addition of 2 μl ATP working solution and mixed using variomag teleshaker (Thermo Fischer Scientific). After 1 h incubation at room temperature the reaction was stopped with 10 μl detection mix containing the Eu-labeled phosphospecific antibody and 10 mM EDTA. After a second incubation period of 1 h at room temperature the FRET signal was measured at 340 nm excitation, 665 nm and 615 nm emission (for the ULight-substrate and Eu-AB, respectively) with an Envision spectrophotometer (Perkin Elmer, Waltham, Mass., USA) with 50 μs delay and 300 μs integration time. IC50 values were determined from the sigmoidal dose response curves with the software Quattro Workflow (Quattro GmbH, Munich, Germany).

A431 = A431 CellTiter-Glo; type: cell-based; conditions: Homo sapiens, A-431; 72 h compound incubation; read-out: A431 CTG IC50
Experimental: (§2) 2. Measurement of Cellular Activity
(§3) The CellTiter-Glo Luminescent Cell Viability Assay (Promega) is a homogeneous method of determining the number of viable cells in culture. It is based on quantification of ATP, indicating the presence of metabolically active cells. Cells are seeded on day 1 at cell numbers that assure assay linearity and optimal signal intensity. After incubation for 24 h in humidified chambers at 37° C. and 5% CO2, compounds in DMSO are added at different concentrations. Cells are further incubated for 72 h at 37° C. and 5% CO2. Cells treated with the compound vehicle DMSO are used as positive controls and cells treated with 10 μM Staurosporine serve as negative controls. At day 5 the CellTiter Glo Reagent is prepared according to the instructions of the kit (Promega Inc.): Reagent is mixed 1:1 with cell culture medium. Thereon, mixture and assay plates are equilibrated at room temperature for 20 min. Equal volumes of the reagent-medium-mixture is added to the volume of culture medium present in each well. The plates are mixed at ˜200 rpm for 2 minutes on an orbital shaker. The microplates are then incubated at room temperature for 10 minutes for stabilization of the luminescent signal. Following incubation the luminescence is recorded on a Victor microplate reader (Perkin Elmer) using a 200 ms integration time. The data is then analyzed with Excel using the XLFIT Plugin (dose response Fit 205) for IC50-determination. As quality control the Z′-factor is calculated from 16 positive and negative control values. Only assay results showing a Z′-factor ≥0.5 are used for further analysis.
as §1

[1] = target: Her2 Exon 20 INSYVMA Ba/F3 (Homo sapiens, UniProt P04626, DUP772-775, cells depend on it); experiment: Her2 Exon 20 INSYVMA Ba/F3 CellTiter-Glo; type: cell-based; conditions: CellTiter-Glo, 72 h, read-out: Her2 Exon 20 INSYVMA Ba/F3 CTG IC50
Experimental: as §2, §3
(§4) Inhibition is indicated as IC50 [nM] (“−”=not measured). Compounds having an activity designated as “A” provided an IC50≤100 nM; compounds having an activity designated as “B” provided an 100 nM<IC50≤500 nM; compounds having an activity designated as “C” provided an 500 nM<IC50≤1000 nM; compounds having an activity designated as “D” provided an 1000 nM<IC50≤10000 nM; and compounds having an activity designated as “E” provided an IC50>10000 nM.

H1975 = H1975 CellTiter-Glo; type: cell-based; conditions: Homo sapiens, NCI-H1975; 72 h compound incubation; read-out: H1975 CTG IC50
Experimental: as §2, §3, §1

EGFR T790ML858R = EGFR T790ML858R (Homo sapiens, UniProt P00533, L858R/T790M); experiment: EGFR T790ML858R Lance assay; type: biochemical
Experimental: as §1

[2] = target: EGFR Exon 20 INSNPH Ba/F3 (Homo sapiens, UniProt P00533, DUP771-773, cells depend on it); experiment: EGFR Exon 20 INSNPH Ba/F3 CellTiter-Glo; type: cell-based; conditions: CellTiter-Glo, 72 h, read-out: EGFR Exon 20 INSNPH Ba/F3 CTG IC50
Experimental: as §2, §3, §4

Sequence of Her2 Exon 20 INSYVMA Ba/F3 (P04626 with tags, fused parts or gaps DUP772-775): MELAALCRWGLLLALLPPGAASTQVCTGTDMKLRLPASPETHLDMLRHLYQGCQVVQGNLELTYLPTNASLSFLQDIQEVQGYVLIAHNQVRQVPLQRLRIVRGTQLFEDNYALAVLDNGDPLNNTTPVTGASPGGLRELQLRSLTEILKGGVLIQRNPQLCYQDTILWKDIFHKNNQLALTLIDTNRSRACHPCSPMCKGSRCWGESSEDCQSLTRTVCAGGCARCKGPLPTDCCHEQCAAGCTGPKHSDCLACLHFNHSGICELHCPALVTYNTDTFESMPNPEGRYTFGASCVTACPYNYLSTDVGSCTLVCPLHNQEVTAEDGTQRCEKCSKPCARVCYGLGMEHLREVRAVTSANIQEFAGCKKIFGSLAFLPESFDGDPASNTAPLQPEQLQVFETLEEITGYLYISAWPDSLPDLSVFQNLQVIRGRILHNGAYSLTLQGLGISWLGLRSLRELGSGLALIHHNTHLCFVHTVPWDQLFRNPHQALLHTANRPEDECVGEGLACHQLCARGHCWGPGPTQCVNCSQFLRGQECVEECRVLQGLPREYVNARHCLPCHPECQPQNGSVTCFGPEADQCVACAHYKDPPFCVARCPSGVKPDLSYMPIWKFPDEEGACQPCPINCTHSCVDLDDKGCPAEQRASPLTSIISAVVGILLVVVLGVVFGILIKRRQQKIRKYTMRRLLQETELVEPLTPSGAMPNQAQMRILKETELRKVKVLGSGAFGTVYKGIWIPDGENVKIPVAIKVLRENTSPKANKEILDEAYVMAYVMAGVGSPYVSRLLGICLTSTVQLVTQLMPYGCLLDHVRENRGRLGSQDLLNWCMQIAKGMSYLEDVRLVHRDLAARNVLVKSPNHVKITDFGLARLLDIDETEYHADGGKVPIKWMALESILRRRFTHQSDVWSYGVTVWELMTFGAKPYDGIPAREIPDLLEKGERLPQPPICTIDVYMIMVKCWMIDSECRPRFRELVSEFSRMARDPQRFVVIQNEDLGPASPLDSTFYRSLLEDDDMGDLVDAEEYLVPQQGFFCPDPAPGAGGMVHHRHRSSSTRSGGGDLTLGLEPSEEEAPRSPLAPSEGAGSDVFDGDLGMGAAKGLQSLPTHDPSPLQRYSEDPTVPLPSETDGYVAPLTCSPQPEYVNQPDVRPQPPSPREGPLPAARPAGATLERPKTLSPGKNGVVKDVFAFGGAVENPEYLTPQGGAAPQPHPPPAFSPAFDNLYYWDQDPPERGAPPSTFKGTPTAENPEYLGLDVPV
T1 sequence (P04626 with tags, fused parts or gaps INS775YVMA): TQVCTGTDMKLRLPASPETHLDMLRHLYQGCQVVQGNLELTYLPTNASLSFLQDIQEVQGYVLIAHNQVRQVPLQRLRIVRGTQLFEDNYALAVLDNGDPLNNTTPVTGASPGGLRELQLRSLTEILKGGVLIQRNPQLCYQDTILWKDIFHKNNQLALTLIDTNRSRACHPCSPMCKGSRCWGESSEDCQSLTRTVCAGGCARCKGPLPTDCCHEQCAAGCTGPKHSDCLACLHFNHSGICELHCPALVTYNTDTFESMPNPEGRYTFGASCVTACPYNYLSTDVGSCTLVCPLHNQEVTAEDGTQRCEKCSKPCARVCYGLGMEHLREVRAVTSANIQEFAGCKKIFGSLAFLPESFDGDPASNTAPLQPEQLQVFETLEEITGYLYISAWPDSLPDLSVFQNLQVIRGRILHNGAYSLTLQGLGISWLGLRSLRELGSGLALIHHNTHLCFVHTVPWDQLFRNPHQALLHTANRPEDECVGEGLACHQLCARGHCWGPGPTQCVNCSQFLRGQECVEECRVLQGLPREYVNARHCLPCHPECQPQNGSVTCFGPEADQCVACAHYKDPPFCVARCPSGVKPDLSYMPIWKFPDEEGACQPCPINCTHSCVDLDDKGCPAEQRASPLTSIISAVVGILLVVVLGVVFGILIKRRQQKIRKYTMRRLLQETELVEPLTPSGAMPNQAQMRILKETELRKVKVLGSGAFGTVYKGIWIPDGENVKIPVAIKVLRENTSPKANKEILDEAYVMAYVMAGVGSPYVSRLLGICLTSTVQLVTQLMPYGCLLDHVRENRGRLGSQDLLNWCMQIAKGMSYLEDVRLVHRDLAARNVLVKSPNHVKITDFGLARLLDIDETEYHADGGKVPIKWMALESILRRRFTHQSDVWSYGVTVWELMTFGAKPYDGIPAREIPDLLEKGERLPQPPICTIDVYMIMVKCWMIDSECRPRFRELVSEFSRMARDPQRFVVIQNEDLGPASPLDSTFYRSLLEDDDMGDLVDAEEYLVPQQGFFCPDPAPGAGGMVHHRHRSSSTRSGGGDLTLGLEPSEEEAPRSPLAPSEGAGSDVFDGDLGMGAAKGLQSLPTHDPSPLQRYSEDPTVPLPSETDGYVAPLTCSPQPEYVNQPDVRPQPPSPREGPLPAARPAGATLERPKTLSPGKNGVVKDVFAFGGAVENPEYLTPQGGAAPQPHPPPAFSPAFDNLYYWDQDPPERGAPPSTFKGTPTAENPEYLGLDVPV
Sequence of EGFR wt (P00533 25-1210): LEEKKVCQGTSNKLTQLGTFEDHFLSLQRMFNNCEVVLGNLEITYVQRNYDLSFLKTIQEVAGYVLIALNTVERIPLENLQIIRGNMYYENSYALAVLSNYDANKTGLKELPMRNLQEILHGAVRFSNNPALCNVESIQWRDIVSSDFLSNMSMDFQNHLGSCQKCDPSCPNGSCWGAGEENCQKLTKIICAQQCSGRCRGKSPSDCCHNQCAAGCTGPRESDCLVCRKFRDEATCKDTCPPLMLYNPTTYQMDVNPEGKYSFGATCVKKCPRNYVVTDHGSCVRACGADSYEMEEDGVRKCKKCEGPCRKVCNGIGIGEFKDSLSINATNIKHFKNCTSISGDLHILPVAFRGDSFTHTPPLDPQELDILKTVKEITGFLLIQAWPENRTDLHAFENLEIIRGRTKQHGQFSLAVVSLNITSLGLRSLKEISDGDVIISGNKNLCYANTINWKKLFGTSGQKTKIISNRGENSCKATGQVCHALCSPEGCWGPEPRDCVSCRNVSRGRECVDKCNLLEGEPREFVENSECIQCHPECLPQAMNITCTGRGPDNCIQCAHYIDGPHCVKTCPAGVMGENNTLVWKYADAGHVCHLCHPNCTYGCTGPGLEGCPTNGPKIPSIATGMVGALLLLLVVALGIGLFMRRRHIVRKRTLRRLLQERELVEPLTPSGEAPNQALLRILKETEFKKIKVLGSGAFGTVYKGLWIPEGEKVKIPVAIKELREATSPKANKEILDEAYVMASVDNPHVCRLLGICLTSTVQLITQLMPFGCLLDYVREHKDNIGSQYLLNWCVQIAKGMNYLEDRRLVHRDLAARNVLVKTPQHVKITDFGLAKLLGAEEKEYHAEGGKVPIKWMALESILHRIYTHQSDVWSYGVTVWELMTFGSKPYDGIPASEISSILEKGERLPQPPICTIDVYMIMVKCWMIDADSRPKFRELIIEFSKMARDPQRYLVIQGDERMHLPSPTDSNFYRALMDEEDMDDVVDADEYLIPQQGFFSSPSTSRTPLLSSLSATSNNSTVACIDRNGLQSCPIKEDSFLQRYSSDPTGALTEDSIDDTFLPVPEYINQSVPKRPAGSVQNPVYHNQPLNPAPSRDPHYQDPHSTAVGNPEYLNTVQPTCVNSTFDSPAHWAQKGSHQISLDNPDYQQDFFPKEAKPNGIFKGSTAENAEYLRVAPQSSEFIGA
Sequence of EGFR Exon 20 INSNPH Ba/F3 (P00533 with tags, fused parts or gaps DUP771-773): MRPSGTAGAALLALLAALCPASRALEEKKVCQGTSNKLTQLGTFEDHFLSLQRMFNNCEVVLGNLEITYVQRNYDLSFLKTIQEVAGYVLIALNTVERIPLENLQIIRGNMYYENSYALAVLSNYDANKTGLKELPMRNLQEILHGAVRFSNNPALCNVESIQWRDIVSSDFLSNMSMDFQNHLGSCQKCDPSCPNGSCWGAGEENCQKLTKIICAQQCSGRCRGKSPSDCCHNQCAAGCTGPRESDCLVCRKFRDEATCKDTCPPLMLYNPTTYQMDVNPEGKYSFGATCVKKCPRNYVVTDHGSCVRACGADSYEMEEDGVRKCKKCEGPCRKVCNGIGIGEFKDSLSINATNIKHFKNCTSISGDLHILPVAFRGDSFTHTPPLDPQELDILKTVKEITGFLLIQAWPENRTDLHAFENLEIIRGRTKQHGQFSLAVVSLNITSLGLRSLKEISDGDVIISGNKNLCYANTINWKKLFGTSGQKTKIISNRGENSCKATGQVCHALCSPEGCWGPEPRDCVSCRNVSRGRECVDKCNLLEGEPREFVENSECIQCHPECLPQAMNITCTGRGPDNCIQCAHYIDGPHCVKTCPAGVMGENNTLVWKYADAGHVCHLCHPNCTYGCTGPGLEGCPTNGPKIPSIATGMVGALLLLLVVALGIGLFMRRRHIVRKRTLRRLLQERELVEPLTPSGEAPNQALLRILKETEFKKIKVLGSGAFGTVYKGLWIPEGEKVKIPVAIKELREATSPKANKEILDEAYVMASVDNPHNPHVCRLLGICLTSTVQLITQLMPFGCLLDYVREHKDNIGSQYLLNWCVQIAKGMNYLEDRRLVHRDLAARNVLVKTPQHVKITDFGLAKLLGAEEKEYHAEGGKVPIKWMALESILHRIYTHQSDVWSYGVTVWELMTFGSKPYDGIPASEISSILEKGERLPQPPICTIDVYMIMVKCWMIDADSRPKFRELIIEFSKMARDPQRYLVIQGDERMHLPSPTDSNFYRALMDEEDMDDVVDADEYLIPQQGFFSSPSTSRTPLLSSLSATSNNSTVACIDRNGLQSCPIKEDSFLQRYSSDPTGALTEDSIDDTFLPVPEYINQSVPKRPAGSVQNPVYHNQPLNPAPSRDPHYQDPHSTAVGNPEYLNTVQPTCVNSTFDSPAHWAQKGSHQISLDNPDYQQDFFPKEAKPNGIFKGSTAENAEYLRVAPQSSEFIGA

| SMILES | IC50 (EGFR wt) | IC50 (HER2 INS YVMA) | IC50 (A431) | GI50 [1] | IC50 (H1975) | IC50 (EGFR T790ML858R) | GI50 [2] |
| --- | --- | --- | --- | --- | --- | --- | --- |
| C=CC(=O)Nc1cc(-c2c(-c3cccc(C(=O)NCCCN4CCN(CC)CC4)c3)[nH]c3nccc(Cl)c23)ccc1C [Example 54, 3-(3-(3-acrylamido-4-methylphenyl)-4-chloro-1H-pyrrolo[2,3-b]pyridin-2-yl)-N-(3-(4-ethylpiperazin-1-yl)propyl)benzamide] | ≤ 100 nM | 100 to 500 nM | 1000 to 100000 nM | 1000 to 10000 nM | 100 to 500 nM | ≤ 100 nM | 1000 to 10000 nM |
| C=CC(=O)N1CCCc2ccc(-c3c(-c4ccc(C5CCN(C)CC5)cc4)[nH]c4nccc(Cl)c34)cc21 [Example 87, 1-(7-(4-chloro-2-(4-(1-methylpiperidin-4-yl)phenyl)-1H-pyrrolo[2,3-b]pyridin-3-yl)-3,4-dihydroquinolin-1(2H)-yl)prop-2-en-1-one] | ≤ 100 nM | ≤ 100 nM | 1000 to 100000 nM | 500 to 1000 nM | 100 to 500 nM | ≤ 100 nM | 500 to 1000 nM |
| C=CC(=O)N1CCCc2ccc(-c3c(-c4ccc(CN5CCN(C)CC5)nc4)[nH]c4nccc(Cl)c34)cc21 [Example 89, 1-(7-(4-chloro-2-(6-((4-methylpiperazin-1-yl)methyl)pyridin-3-yl)-1H-pyrrolo[2,3-b]pyridin-3-yl)-3,4-dihydroquinolin-1(2H)-yl)prop-2-en-1-one] | ≤ 100 nM | ≤ 100 nM | 500 to 1000 nM | 100 to 500 nM | 100 to 500 nM | ≤ 100 nM | 100 to 500 nM |
| C=CC(=O)N1CCCc2ccc(-c3c(-c4ccc(OCCN5CCCC5)cc4)[nH]c4nccc(Cl)c34)cc21 [Example 90, 1-(7-(4-chloro-2-(4-(2-(pyrrolidin-1-yl)ethoxy)phenyl)-1H-pyrrolo[2,3-b]pyridin-3-yl)-3,4-dihydroquinolin-1(2H)-yl)prop-2-en-1-one] | ≤ 100 nM | ≤ 100 nM | 1000 to 100000 nM | 500 to 1000 nM | 100 to 500 nM | ≤ 100 nM | 1000 to 10000 nM |
| C=CC(=O)N1CCCc2ccc(-c3c(-c4cccc(OCCN5CCCC5)c4)[nH]c4nccc(Cl)c34)cc21 [Example 94, 1-(7-(4-chloro-2-(3-(2-(pyrrolidin-1-yl)ethoxy)phenyl)-1H-pyrrolo[2,3-b]pyridin-3-yl)-3,4-dihydroquinolin-1(2H)-yl)prop-2-en-1-one] | ≤ 100 nM | ≤ 100 nM | 1000 to 100000 nM | 1000 to 10000 nM | 100 to 500 nM | ≤ 100 nM | 1000 to 10000 nM |
| C=CC(=O)N1CCOc2ccc(-c3c(-c4ccc(OCCN5CCCC5)cc4)[nH]c4nccc(Cl)c34)cc21 [Example 101, 1-(6-(4-chloro-2-(4-(2-(pyrrolidin-1-yl)ethoxy)phenyl)-1H-pyrrolo[2,3-b]pyridin-3-yl)-2H-benzo[b][1,4]oxazin-4(3H)-yl)prop-2-en-1-one] | ≤ 100 nM | ≤ 100 nM | 1000 to 100000 nM | 100 to 500 nM | 100 to 500 nM | ≤ 100 nM | 100 to 500 nM |

Results, then the compound that gave them:

| IC50 (EGFR wt) | IC50 (HER2 INS YVMA) | IC50 (A431) | GI50 [1] | IC50 (H1975) | IC50 (EGFR T790ML858R) | GI50 [2] | SMILES |
| --- | --- | --- | --- | --- | --- | --- | --- |
| ≤ 100 nM | ≤ 100 nM | 1000 to 100000 nM | 100 to 500 nM | 100 to 500 nM | ≤ 100 nM | 100 to 500 nM | C=CC(=O)N1CCOc2ccc(-c3c(-c4ccc(CN(C)C)cc4)[nH]c4nccc(Cl)c34)cc21 [Example 102, 1-(6-(4-chloro-2-(4-((dimethylamino)methyl)phenyl)-1H-pyrrolo[2,3-b]pyridin-3-yl)-2H-benzo[b][1,4]oxazin-4(3H)-yl)prop-2-en-1-one] |
| ≤ 100 nM | ≤ 100 nM | 500 to 1000 nM | 100 to 500 nM | 100 to 500 nM | ≤ 100 nM | 100 to 500 nM | C=CC(=O)N1CCOc2ccc(-c3c(-c4cccc(OCCN5CCCC5)c4)[nH]c4nccc(Cl)c34)cc21 [Example 103, 1-(6-(4-chloro-2-(3-(2-(pyrrolidin-1-yl)ethoxy)phenyl)-1H-pyrrolo[2,3-b]pyridin-3-yl)-2H-benzo[b][1,4]oxazin-4(3H)-yl)prop-2-en-1-one] |
| ≤ 100 nM | ≤ 100 nM | 100 to 500 nM | 100 to 500 nM | ≤ 100 nM | ≤ 100 nM | 100 to 500 nM | C=CC(=O)N1CCc2ccc(-c3c(-c4ccnc(N5CCN(C)CC5)c4)[nH]c4nccc(OCC)c34)cc21 [Example 105] |
| ≤ 100 nM | ≤ 100 nM | 500 to 1000 nM | 100 to 500 nM | ≤ 100 nM | ≤ 100 nM | 100 to 500 nM | C=CC(=O)N1CCc2ccc(-c3c(-c4ccc(CN(C)C)cc4)[nH]c4nccc(OCC)c34)cc21 [Example 106, 1-(6-(2-(4-((dimethylamino)methyl)phenyl)-4-ethoxy-1H-pyrrolo[2,3-b]pyridin-3-yl)indolin-1-yl)prop-2-en-1-one] |
| ≤ 100 nM | ≤ 100 nM | 500 to 1000 nM | 100 to 500 nM | ≤ 100 nM | ≤ 100 nM | 100 to 500 nM | C=CC(=O)N1CCc2ccc(-c3c(-c4ccc(OCCN5CCCC5)cc4)[nH]c4nccc(OCC)c34)cc21 [Example 107, 1-(6-(4-ethoxy-2-(4-(2-(pyrrolidin-1-yl)ethoxy)phenyl)-1H-pyrrolo[2,3-b]pyridin-3-yl)indolin-1-yl)prop-2-en-1-one] |
| ≤ 100 nM | ≤ 100 nM | 500 to 1000 nM | 100 to 500 nM | 500 to 1000 nM | ≤ 100 nM | 100 to 500 nM | C=CC(=O)Nc1cc(-c2c(-c3ccc(N4CCN(C)CC4)cc3)[nH]c3ncc(C(=O)NCc4ccccc4)cc23)ccc1C [Example 118, 3-(3-acrylamido-4-methylphenyl)-N-benzyl-2-(4-(4-methylpiperazin-1-yl)phenyl)-1H-pyrrolo[2,3-b]pyridine-5-carboxamide 2,2,2-trifluoroacetate] |
| ≤ 100 nM | ≤ 100 nM | > 10000 nM | > 10000 nM | > 10000 nM | 100 to 500 nM | > 10000 nM | C=CC(=O)Nc1cc(-c2c(-c3ccc(N4CCN(C)CC4)cc3)[nH]c3ncc(C(=O)NCc4cccc(NC(C)=O)c4)cc23)ccc1C [Example 121, N-(3-acetamidobenzyl)-3-(3-acrylamido-4-methylphenyl)-2-(4-(4-methylpiperazin-1-yl)phenyl)-1H-pyrrolo[2,3-b]pyridine-5-carboxamide] |
